Here are results for four substances from patent US20090074666A1 (priority 2005, published 2009).

Test [1] deals with human influenza virus A strains. In kind it is binding.
Another test deals with A/Beijing/262/95 H1N1. Format: binding, human influenza virus A. Details: key: “+” = binding; “−” = no binding; “(+)” = trace binding.
Another test relates to A/New Caledonia/20/99. Format: binding, human influenza virus A. Details: key: “+” = binding; “−” = no binding; “(+)” = trace binding.
In the next test the test system is A/Taiwan/1/86 H1N1. Format: binding, human influenza virus A. Details: key: “+” = binding; “−” = no binding; “(+)” = trace binding.
The subject of another test is A/Shangdong/9/93 H3N2. Format: binding, human influenza virus A. Details: key: “+” = binding; “−” = no binding; “(+)” = trace binding.
The test system of another test is A/Kiev/301/94 H3N2. In kind it is binding, human influenza virus A. Details: key: “+” = binding; “−” = no binding; “(+)” = trace binding.
For the next test, the system named is A/X31, A/Aichi/3/75 H3N2. Format: binding, human influenza virus A. Details: key: “+” = binding; “−” = no binding; “(+)” = trace binding.
For a further test, the system named is A/2/Japan/305/57 H2N2. In kind it is binding, human influenza virus A. Details: key: “+” = binding; “−” = no binding; “(+)” = trace binding.
In another test the test system is A/PR/8/34 H1N1. Format: binding, human influenza virus A. Details: key: “+” = binding; “−” = no binding; “(+)” = trace binding.
For test [2], the system named is serum antibodies of test subjects (anti-human IgG detection). The note with it: N-terminal biotin conjugate on streptavidin plate. Here is the method: Biotinylated peptides were bound to streptavidin-coated plates (Pierce).
The peptides sequences were as follows: • Biotin-aminohexanoyl-PWVRGV (custom product, CSS, Edinburgh, Scotland) • Biotin-aminohexanoyl-SYACKR (custom product, CSS, Edinburgh, Scotland) • Biotin-aminohexanoyl-SKAYSNC (custom product, CSS, Edinburgh, Scotland)
Prior to peptide immobilization, plates were blocked with 150 μl of 0.5% BSA in 10 mM sodium phosphate/0.15 M NaCl/0.05% Tween-20, pH 7.2, for 1.5 h at RT. The plate was then washed three times with 10 mM sodium phosphate/0.15 M NaCl/0.05% Tween-20, pH 7.2.
Peptides were dissolved in 10 mM sodium phosphate/0.15 M NaCl, pH 7.2, to a concentration of 0.5 nmol/ml. One hundred microliters of the peptide solutions (50 pmol of the peptide) were added to the wells and allowed to react overnight at +4° C. The plates were then washed four times with 10 mM sodium phosphate/0.15 M NaCl/0.05% Tween-20/0.2% BSA, pH 7.2 (washing buffer).
Serum was obtained from six healthy individuals (29-44 years of age), and dilutions 1:10, 1:100 and 1:1000 were prepared from all but one serum sample in the washing buffer. The serum obtained from person nr. 5 was instead diluted 1:25, 1:250 and 1:2500 in the washing buffer. One hundred microliters of each serum sample was added to the wells and incubated for 60 mins at RT. […] All incubations were performed in duplicates.
After serum incubation the plate was washed with the washing buffer 8 times with at least 5 min incubation period between change of the washing liquid.
The bound serum antibodies were quantitated by adding anti-human IgG (rabbit)—HRP conjugate (Sigma) in 1:30000 dilution to each well. After one hour incubation at RT, the plate was washed five times with the washing buffer. One hundred microliters of TMB+ color reagent (Dako Cytomation) was then added. The absorbance was read at 650 nm after 15 mins. Immediately after this measurement 100 μl of 1 M sulphuric acid was added and the absorbance read at 450 nm.

Test [3] shares this test system. Briefly: ELISA of serum antibodies on maleimide-activated plates. In kind it is binding. The note with it: Cys-conjugate on maleimide plate. Here is the method: Peptides containing cysteine were bound through the cysteine sulfhydryl group to maleimide activated plates (Reacti-Bind™ Maleimide activated plates, Pierce).
One hundred microliters of the peptide solution (0.5 nmol of peptide) was added to each well and allowed to react overnight at +4° C.
The unreacted maleimide groups were blocked with 2-mercaptoethanol: 150 μl of 1 mM 2-mercaptoethanol in 10 mM sodium phosphate/0.15 M NaCl/2 mM EDTA, pH 7.2 was added to each well and allowed to react for 1 hour at RT.
The serum obtained from person nr. […] Control wells contained no peptide but both 2-mercaptoethanol and BSA blockings were employed. All incubations were performed in duplicates.
(In general: In an ELISA, binding on a coated surface is turned into a signal by an enzyme label.)

Where two headings read alike, the source gives them in different places.

Regarding “Neu5Acα2-3Galβ1-4GlcNAcβ1-3(Neu5Acα2-3Galβ1-4GlcNAcβ1-6)Galβ1-4Glc [Oligosaccharide 9]”, the “activity on solid phase, in words” value in test [1] was “active especially when presented in polyvalent form on a solid phase”.
For Globoside, the “Binding of influenza virus strain to glycolipids” value in the test with A/Beijing/262/95 H1N1 is “−”; in the test with A/New Caledonia/20/99, “−”; with A/Taiwan/1/86 H1N1 it was “−”; with A/Shangdong/9/93 H3N2 it was “−”; with A/Kiev/301/94 H3N2, “−”; in the test with A/X31, A/Aichi/3/75 H3N2, “−”. Moreover, the “Binding of influenza virus strain to glycolipids” value in the test with A/2/Japan/305/57 H2N2 and in the test with A/PR/8/34 H1N1 was “−” throughout.
With Biotin-aminohexanoyl-SYACKR [Peptide 2], the “Approximate immune reactions of sera against synthetic peptides” value (shortened to “Approximate immune reactions of sera”) is “weakest reaction” in test [2] (Serum 1, listed as Biotin-aminohexanoic-SYACKR); “strongest immune response” in test [2] (Serum 2, listed as Biotin-aminohexanoic-SYACKR); “strongest immune response” in test [2] (Serum 5, listed as Biotin-aminohexanoic-SYACKR); “weaker” in [3] (Serum 5); “strongest response” in test [3] (Serum 6).
For the substance “Biotin-aminohexanoyl-SKAYSNC [Peptide 1]”, the “Approximate immune reactions of sera” value in test [2] (Serum 1, listed as Biotin-aminohexanoic-SKAYSNC) is given as “weakly or non-reactive”; in test [2] (Serum 3, listed as Biotin-aminohexanoic-SKAYSNC), “strongest immune response”; in test [2] (Serum 4, listed as Biotin-aminohexanoic-SKAYSNC), “strongest immune response”; in test [2] (Serum 5, listed as Biotin-aminohexanoic-SKAYSNC), “weakly or non-reactive”; in test [2] (Serum 6, listed as Biotin-aminohexanoic-SKAYSNC), “weakly or non-reactive”; in [3] (Serum 1), “weakly or non-reactive”. Besides, the “Approximate immune reactions of sera” value was “reacted” in test [3] (Serum 2); “reacted” in [3] (Serum 3); “reacted” in test [3] (Serum 4); “weakly or non-reactive” in test [3] (Serum 5); “strongest” in test [3] (Serum 6).
